In US20020183519A1, “Antithrombotic carboxylic acid amides” (priority 2001, published 2002):

Target: T1, human factor Xa (Homo sapiens, UniProt P00742)
T1 construct: released from the colourless chromogenic substrate by human factor Xa; purchased Roche
Assay: Inhibition of factor Xa, enzyme-kinetic measurement with chromogenic substrate
Type: biochemical
Settings: human factor Xa (Roche) 0.175 U/ml, substrate Chromozym X 200 μMol/l, pH 8.0, 37° C., 405 nm
Protocol: Method: Enzyme-kinetic measurement with chromogenic substrate. The quantity of p-nitroaniline (pNA) released from the colourless chromogenic substrate by human factor Xa is determined photometrically at 405 nm. It is proportional to the activity of the enzyme used. The inhibition of the enzyme activity by the test substance (in relation to the solvent control) is determined at various concentrations of test substance and from this the IC50 is calculated, as the concentration which inhibits the factor Xa used by 50%.
Material: Tris(hydroxymethyl)-aminomethane buffer (100 mmol) and sodium chloride (150 mmol), pH 8.0
Factor Xa (Roche), spec. activity: 10 U/0.5 ml, final concentration: 0.175 U/ml for each reaction mixture
Substrate Chromozym X (Roche), final concentration: 200 μMol/l for each reaction mixture
Procedure: 10 μl of a 23.5-times concentrated starting solution of the test substance or solvent (control), 175 μl of tris(hydroxymethyl)-aminomethane buffer and 25 μl of a 1.65 U/ml Factor Xa working solution are incubated for 10 minutes at 37° C. After the addition of 25 μl of Chromozym X working solution ([…]) the sample is measured in a photometer (SpectraMax 250) at 405 nm for 150 seconds at 37° C.
1. Determining the maximum increase (deltaOD/minutes) over 3 measuring points.
2. Determining the % inhibition based on the solvent control.
3. Plotting a dosage/activity curve (% inhibition vs substance concentration).
4. Determining the IC50 by interpolating the X value (substance concentration) of the dosage/activity curve at Y=50% inhibition.

T1 sequence (P00742 235-488 limits assumed): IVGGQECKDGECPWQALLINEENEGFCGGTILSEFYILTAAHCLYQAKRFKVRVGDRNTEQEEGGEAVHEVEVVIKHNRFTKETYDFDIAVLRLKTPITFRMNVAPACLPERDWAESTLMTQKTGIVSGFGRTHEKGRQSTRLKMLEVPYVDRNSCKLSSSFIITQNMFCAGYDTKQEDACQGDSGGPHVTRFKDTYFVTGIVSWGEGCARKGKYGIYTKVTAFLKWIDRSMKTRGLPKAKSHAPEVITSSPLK
T1 sequence (P00742 41-179 partner limits assumed): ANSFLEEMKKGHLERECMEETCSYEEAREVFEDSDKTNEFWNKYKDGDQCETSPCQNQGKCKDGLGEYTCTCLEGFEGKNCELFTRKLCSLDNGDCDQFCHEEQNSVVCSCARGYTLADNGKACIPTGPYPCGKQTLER

Row | Structure (SMILES) | IC50
1 | Cc1cc(NC(=O)Cc2cc(C(=N)N)ccc2O)ccc1-n1cnc2c1CCCC2 [(2)] | 0.081 µM
2 | Cc1cc(NC(=O)Cc2cc(C(=N)N)ccc2O)ccc1-c1ncnc2c1CCC2 [(3)] | 0.062 µM
3 | CNC(=O)c1nn(-c2ccc(C(=O)NCc3cc(C(=N)N)ccc3O)cc2C(F)(F)F)c2c1CCC2 [(5)] | 0.016 µM
4 | N=C(N)c1ccc(O)c(CNC(=O)c2ccc(-n3nc(CN)c4c3CCC4)c(C(F)(F)F)c2)c1 [(6)] | 0.007 µM
5 | Cc1nn(-c2ccc(C(=O)NCc3cc(C(=N)N)ccc3O)cc2C(F)(F)F)c2c1CCC2 [(4)] | 0.015 µM
6 | Cc1cc(NC(=O)Cc2cc(C(=N)N)ccc2O)ccc1-n1c(N2CCCC2)nc2ccccc21 [(1)] | 0.14 µM

More lines, now with the values ahead:

Row | IC50 | Structure (SMILES)
7 | 0.0075 µM | CCOC(=O)CC(NC(=O)c1ccc(-n2nc(CN)c3c2CCC3)c(C(F)(F)F)c1)c1cccc(C(=N)N)c1 (stereo not drawn) [(7)]
8 | 0.028 µM | CCOC(=O)CC(NC(=O)c1ccc(-n2cnc3c2CCCC3)c(C(F)(F)F)c1)c1cccc(C(=N)N)c1 (stereo not drawn) [(8)]
9 | 0.024 µM | COC(=O)c1nn(-c2ccc(C(=O)NCc3cc(C(=N)N)ccc3O)cc2C(F)(F)F)c2c1CCC2 [(9)]
